The record followed here is US20130004516A1, “DRUG FOR INFLAMMATORY BOWEL DISEASE” (DAINIPPON SUMITOMO PHARMA CO., LTD., priority 2010, published 2013).

The assay deals with mouse model of relapse-remitting type ulcerative colitis. The assay is described as follows: Ulcer score of the large intestine in the mouse model of colitis induced by 1% DSS (Example 1). The class given is in vivo. The note with it: day of completion; score 1 = ulcer of 1 mm^2 or larger; antibodies 0.5 mg/mouse intraperitoneally once; sulfasalazine 200 mg/kg orally once a day. As for the experimental part: An aqueous solution of dextran sulfate (DSS) was administered to a mouse to induce relapse-remitting type ulcerative colitis. To this mouse model of relapse-remitting type ulcerative colitis, an anti-CD81 antibody was administered once and a relapse (recurrence)-inhibitory effect of single-dose administration of an anti-CD81 antibody on ulcerative colitis was examined by comparing with single-dose administration of an anti-TNF-α antibody and multiple-dose administration of sulfasalazine, both of which are the existing therapeutic agents.
Dextran sulfate (the product of TdB consultancy AB, an average molecular weight of 47,000) was dissolved in drinking water to prepare a 1% aqueous solution. […]
Four-week-old mice (BALB/cAnNCrj, male, the product of Charles River Laboratories Japan, Inc.) were purchased, and the mice in which no abnormality was found after six days of quarantine rearing were measured for body weight and then divided into six groups, where one group contained 10 mice. […]
On the day of completion of the experiment, 0.1 ml of a 2.5% brilliant blue 6B solution was administered to all groups of mice via tail vein. […] Subsequently, the large intestine was thoroughly washed with an ethanol solution and the size of ulcer was measured. […]

`O=C(O)c1cc(/N=N/c2ccc(S(=O)(=O)Nc3ccccn3)cc2)ccc1O` [Sulfasalazine, sulfasalazine] returned a Ulcer score of 0.1.
